Here are results for three molecules from publication PMC9026127, “A Leucyl-tRNA Synthetase Urzyme: Authenticity of tRNA Synthetase Catalytic Activities and Promiscuous Phosphorylation of Leucyl-5′AMP” (International Journal of Molecular Sciences, 2022).

For one data set, the target named is T1, P. horikoshii LeuRS (Pyrococcus horikoshii, UniProt O58698).
T1 construct: gene leuS; full length, synthetic gene in pET-11a, E. coli BL21-CodonPlus(DE3)-RIPL, Ni-NTA purified (tag not described), heat step 80 °C
T1 sequence (O58698 1-967): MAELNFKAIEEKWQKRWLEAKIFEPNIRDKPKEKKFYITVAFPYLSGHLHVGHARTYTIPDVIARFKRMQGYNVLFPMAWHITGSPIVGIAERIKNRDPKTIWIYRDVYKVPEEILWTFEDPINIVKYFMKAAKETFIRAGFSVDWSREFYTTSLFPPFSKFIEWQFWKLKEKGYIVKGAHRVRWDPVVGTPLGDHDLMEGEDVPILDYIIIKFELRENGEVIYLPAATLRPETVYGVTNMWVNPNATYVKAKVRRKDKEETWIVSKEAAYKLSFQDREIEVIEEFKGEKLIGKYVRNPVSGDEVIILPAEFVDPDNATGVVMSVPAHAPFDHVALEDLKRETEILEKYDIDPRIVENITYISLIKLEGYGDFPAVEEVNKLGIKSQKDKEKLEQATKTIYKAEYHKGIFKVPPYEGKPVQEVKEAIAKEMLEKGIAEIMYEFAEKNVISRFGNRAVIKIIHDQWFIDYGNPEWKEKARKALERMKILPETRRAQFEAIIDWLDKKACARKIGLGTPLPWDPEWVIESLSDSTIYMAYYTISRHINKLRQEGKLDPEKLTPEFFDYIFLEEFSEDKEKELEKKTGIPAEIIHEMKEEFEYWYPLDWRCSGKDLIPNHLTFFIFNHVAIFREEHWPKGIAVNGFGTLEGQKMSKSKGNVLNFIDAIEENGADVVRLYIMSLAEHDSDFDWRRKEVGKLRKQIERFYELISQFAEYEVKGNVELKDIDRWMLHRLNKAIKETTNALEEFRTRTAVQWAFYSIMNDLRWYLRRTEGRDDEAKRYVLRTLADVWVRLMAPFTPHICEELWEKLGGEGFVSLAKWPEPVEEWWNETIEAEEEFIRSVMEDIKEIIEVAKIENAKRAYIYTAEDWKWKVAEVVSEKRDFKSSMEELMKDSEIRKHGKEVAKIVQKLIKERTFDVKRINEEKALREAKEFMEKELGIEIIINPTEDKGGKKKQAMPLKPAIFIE
The data set is described as follows: nitrocellulose filter binding, [^[…]] leucine. The conditions noted are these: labelled compound; formed in situ from 25 μM [^14C] leucine and 50 μM ATP, presumed leucyl-5′AMP; pH 7.5, 20 mM MgCl2, 37 °C.

Data set [1] has as its target T2, LeuAC (LeuRS urzyme), TEV-cleaved (Pyrococcus horikoshii, UniProt O58698).
T2 construct: gene leuS; MBP fusion (pMAL-c2x, E. coli), TEV-cleaved but MBP not separated; his-tagged
Kind of data set: Sephadex G15 size-exclusion co-elution of [^[…]] leucine label. In kind it is binding. Conditions: labelled compound; formed in situ from [^14C] leucine and ATP, presumed leucyl-5′AMP; 50 mM HEPES pH 7.5, 20 mM MgCl2, 37 °C; only a simulated upper limit for KD.

A further data set has as its target T3, Ec LeuRS (Escherichia coli, UniProt P07813).
T3 construct: gene leuS
The conditions noted are these: leucine activation; 50 mM HEPES pH 7.5, 10 mM MgCl2, 10 μM ATP, 50 mM amino acid, pyrophosphatase.

Substrate in the data set “purified protein”: CC(C)C[C@H](N)C(=O)O
The data set is described as follows: purified protein. In kind it is biochemical, Pyrococcus horikoshii. The conditions noted are these: unit not printed beside the value (M inferred), tRNA^Leu and ATP co-substrates, 50 mM HEPES pH 7.5, 10 mM MgCl2.

T3 sequence (P07813 whole entry): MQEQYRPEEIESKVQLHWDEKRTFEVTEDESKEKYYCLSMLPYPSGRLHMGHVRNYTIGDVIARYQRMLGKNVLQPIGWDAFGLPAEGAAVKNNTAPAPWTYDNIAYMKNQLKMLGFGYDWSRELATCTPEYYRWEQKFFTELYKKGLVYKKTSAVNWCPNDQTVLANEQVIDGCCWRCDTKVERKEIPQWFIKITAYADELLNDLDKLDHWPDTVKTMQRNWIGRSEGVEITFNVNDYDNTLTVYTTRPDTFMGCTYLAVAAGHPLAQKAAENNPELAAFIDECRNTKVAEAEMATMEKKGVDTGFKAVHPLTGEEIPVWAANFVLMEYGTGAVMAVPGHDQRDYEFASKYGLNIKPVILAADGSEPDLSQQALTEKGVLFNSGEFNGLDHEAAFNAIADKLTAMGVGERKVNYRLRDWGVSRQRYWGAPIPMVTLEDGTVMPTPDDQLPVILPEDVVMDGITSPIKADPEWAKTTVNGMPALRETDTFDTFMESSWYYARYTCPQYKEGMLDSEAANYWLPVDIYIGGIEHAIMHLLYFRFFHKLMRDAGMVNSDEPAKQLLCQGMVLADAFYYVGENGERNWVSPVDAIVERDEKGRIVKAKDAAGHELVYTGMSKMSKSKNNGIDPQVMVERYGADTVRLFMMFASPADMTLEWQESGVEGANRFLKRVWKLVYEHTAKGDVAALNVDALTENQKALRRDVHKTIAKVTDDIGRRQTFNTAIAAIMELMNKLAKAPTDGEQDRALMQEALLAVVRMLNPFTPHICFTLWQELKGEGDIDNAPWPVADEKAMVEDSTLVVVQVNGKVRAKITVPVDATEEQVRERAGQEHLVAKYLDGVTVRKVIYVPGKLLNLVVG

Turning to `CC(C)C[C@H](N)C(=O)OP(=O)(O)OC[C@H]1O[C@@H](n2cnc3c(N)ncnc32)[C@H](O)[C@@H]1O` [leucyl-5′AMP], the “moles [^14C] leucine/mole enzyme” value at P. horikoshii LeuRS is on record as 0.48 ± 0.13 mol/mol. Moreover, the “Sephadex G15 size-exclusion co-elution of [^14C] leucine label” value in data set [1] was “lower limit on both the stoichiometry and affinity of the active LeuAC•leucyl-5′ AMP complex”.

`Nc1ncnc2c1ncn2[C@@H]1O[C@H](COP(=O)(O)OP(=O)(O)OP(=O)(O)O)[C@@H](O)[C@H]1O` [ATP]: the “single-turnover active-site titration, [^32P] ATP, TLC” value at Ec LeuRS was “Full-length LeuRS from both E. coli and P. horikoshii produce minor amounts of ADP”.

B1: P. horikoshii LeuRS (Pyrococcus horikoshii OT3) (protein)
chain: MAELNFKAIEEKWQKRWLEAKIFEPNIRDKPKEKKFYITVAFPYLSGHLHVGHARTYTIPDVIARFKRMQGYNVLFPMAWHITGSPIVGIAERIKNRDPKTIWIYRDVYKVPEEILWTFEDPINIVKYFMKAAKETFIRAGFSVDWSREFYTTSLFPPFSKFIEWQFWKLKEKGYIVKGAHRVRWDPVVGTPLGDHDLMEGEDVPILDYIIIKFELRENGEVIYLPAATLRPETVYGVTNMWVNPNATYVKAKVRRKDKEETWIVSKEAAYKLSFQDREIEVIEEFKGEKLIGKYVRNPVSGDEVIILPAEFVDPDNATGVVMSVPAHAPFDHVALEDLKRETEILEKYDIDPRIVENITYISLIKLEGYGDFPAVEEVNKLGIKSQKDKEKLEQATKTIYKAEYHKGIFKVPPYEGKPVQEVKEAIAKEMLEKGIAEIMYEFAEKNVISRFGNRAVIKIIHDQWFIDYGNPEWKEKARKALERMKILPETRRAQFEAIIDWLDKKACARKIGLGTPLPWDPEWVIESLSDSTIYMAYYTISRHINKLRQEGKLDPEKLTPEFFDYIFLEEFSEDKEKELEKKTGIPAEIIHEMKEEFEYWYPLDWRCSGKDLIPNHLTFFIFNHVAIFREEHWPKGIAVNGFGTLEGQKMSKSKGNVLNFIDAIEENGADVVRLYIMSLAEHDSDFDWRRKEVGKLRKQIERFYELISQFAEYEVKGNVELKDIDRWMLHRLNKAIKETTNALEEFRTRTAVQWAFYSIMNDLRWYLRRTEGRDDEAKRYVLRTLADVWVRLMAPFTPHICEELWEKLGGEGFVSLAKWPEPVEEWWNETIEAEEEFIRSVMEDIKEIIEVAKIENAKRAYIYTAEDWKWKVAEVVSEKRDFKSSMEELMKDSEIRKHGKEVAKIVQKLIKERTFDVKRINEEKALREAKEFMEKELGIEIIINPTEDKGGKKKQAMPLKPAIFIE
notes: full length, synthetic gene in pET-11a, E. coli BL21-CodonPlus(DE3)-RIPL, Ni-NTA purified (tag not described), heat step 80 °C
Consider B1, for which the Km in “purified protein” was 5.9 ± 0.8 × 10^−6 M.
